{
  "source": "patent US20100048503A1",
  "about": "“COMPOSITION FOR TREATMENT OF PANCREATIC CANCER” (Eisai R & D Management Co., Ltd., priority 2007, published 2010)",
  "key": {"[1]": {"tested_on": "Human pancreatic cancer cell line AsPC-1", "assay": "Combination use with gemcitabine hydrochloride in subcutaneous transplanted (xenograft) model in nude mouse", "assay_type": "in vivo", "settings": "AsPC-1 xenograft; for Relative tumor volume on Day 29 Average ± standard deviation: nude mouse", "procedure": "Human pancreatic cancer cell line AsPC-1 (purchased from ATCC) was cultured in RPMI1640 (containing 10% FBS) in a 5% carbon dioxide gas incubator at 37° C. to about 80% confluence, and then the cells were collected with trypsin-EDTA. A 5×10^7 cells/mL suspension was prepared with a phosphate buffer, and each 0.1 mL of the resulting cell suspension was subcutaneously transplanted to a nude mouse at the side of its body. Eleven days after the transplantation, 4-(3-chloro-4-(cyclopropylaminocarbonyl)aminophenoxy)-7-methoxy-6-quinolinecarboxamide (3, 10 or 30 mg/kg, once a day for four weeks, oral) and gemcitabine hydrochloride (purchased from Eli Lilly Japan) (200 mg/kg, four times every three days, intravenous) were administered alone or in combination. The major and minor axes of tumors were measured with Digimatic caliper (Mitsutoyo Corporation), and tumor volumes and relative tumor volumes were calculated according to the following formulae: […] Relative Tumor Volume (RTV)=Tumor volume on measurement day/Tumor volume on the first administration day. […] The first day of administration was considered Day 1."}, "[2]": {"tested_on": "Human pancreatic cancer cell line AsPC-1", "assay": "Combination use with erlotinib hydrochloride in subcutaneous transplanted (xenograft) model in nude mouse", "assay_type": "in vivo", "settings": "oral, AsPC-1 xenograft; for Relative tumor volume on Day 29 Average ± standard deviation: once a day for four weeks, nude mouse", "procedure": "Human pancreatic cancer cell line AsPC-1 (purchased from ATCC) was cultured in RPMI1640 (containing 10% FBS) in a 5% carbon dioxide gas incubator at 37° C. to about 80% confluence, and then the cells were collected with trypsin-EDTA. A 5×10^7 cells/mL suspension was prepared with a phosphate buffer, and each 0.11 mL of the resulting cell suspension was subcutaneously transplanted to a nude mouse at the side of its body. Ten days after the transplantation, 4-(3-chloro-4-(cyclopropylaminocarbonyl)aminophenoxy)-7-methoxy-6-quinolinecarboxamide (10 mg/kg, once a day for four weeks) and erlotinib hydrochloride (50 mg/kg, once a day for four weeks) were orally administered alone or in combination. The major and minor axes of tumors were measured with Digimatic caliper (Mitsutoyo Corporation), and tumor volumes and relative tumor volumes were calculated according to the following formulae: […] Relative Tumor Volume (RTV)=Tumor volume on measurement day/Tumor volume on the first administration day. […] The first day of administration was considered Day 1."}, "[3]": {"settings": "Compound A 10 mg/kg in combination with erlotinib hydrochloride 50 mg/kg"}, "[4]": {"settings": "Compound A 3, 10 or 30 mg/kg oral in combination with gemcitabine hydrochloride 200 mg/kg intravenous"}},
  "note": "Structures can show the parent of a compound that is named as a salt.",
  "data": [
    {"smiles": "Nc1ccn([C@@H]2O[C@H](CO)C(O)C2(F)F)c(=O)n1", "note": "(single isomer, unassigned; (+)) [Gemcitabine hydrochloride, (+)-2′-deoxy-2′,2′-difluorocytidene, reference compound]", "values": [
      {"measurement": "Relative tumor volume on Day 29 Average ± standard deviation", "setting": "[1]; Gemcitabine hydrochloride 200 mg/kg alone, four times every three days, intravenous", "value": "3.41 ± 0.41"}
    ]},
    {"smiles": "COc1cc2nccc(Oc3ccc(NC(=O)NC4CC4)c(Cl)c3)c2cc1C(N)=O", "note": "[Compound A, 4-(3-chloro-4-(cyclopropylaminocarbonyl)aminophenoxy)-7-methoxy-6-quinolinecarboxamide]", "values": [
      {"measurement": "Relative tumor volume on Day 29 Average ± standard deviation", "setting": "[2]; Compound A 10 mg/kg alone", "value": "1.84 ± 1.31"},
      {"measurement": "Anti-tumor effect of combination use compared with either agent alone", "setting": "[2]; [3]", "value": "superior anti-tumor effect"},
      {"measurement": "Effect when used in combination with erlotinib hydrochloride", "setting": "[2]; [3]", "value": "additive effect"},
      {"measurement": "Relative tumor volume on Day 29 Average ± standard deviation", "setting": "[1]; Compound A 3 mg/kg alone, once a day for four weeks, oral", "value": "2.10 ± 0.64"},
      {"measurement": "Relative tumor volume on Day 29 Average ± standard deviation", "setting": "[1]; Compound A 10 mg/kg alone, once a day for four weeks, oral", "value": "1.79 ± 0.56"},
      {"measurement": "Relative tumor volume on Day 29 Average ± standard deviation", "setting": "[1]; Compound A 30 mg/kg alone, once a day for four weeks, oral", "value": "0.88 ± 0.27"},
      {"measurement": "Anti-tumor effect of combination use compared with either agent alone", "setting": "[1]; [4]", "value": "superior anti-tumor effect"},
      {"measurement": "Effect when used in combination with gemcitabine hydrochloride", "setting": "[1]; [4]", "value": "additive effect"}
    ]},
    {"smiles": "C#Cc1cccc(Nc2ncnc3cc(OCCOC)c(OCCOC)cc23)c1", "note": "[Erlotinib hydrochloride, 4-(3-ethynylphenylamino)-6,7-bis(2-methoxyethoxy)-quinazoline, reference compound]", "values": [
      {"measurement": "Relative tumor volume on Day 29 Average ± standard deviation", "setting": "[2]; Erlotinib hydrochloride 50 mg/kg alone", "value": "4.54 ± 0.18"}
    ]}
  ]
}
